# Assay results reported in patent US8399514B2, “Treatment for multiple sclerosis” (Biogen Idec MA Inc., priority 2007, dated 2013).
# Experiments:
# Nrf2 [1] = assay: RNAi (siRNA Nrf2/Keap1) experiment in DLD1 cells stimulated with DMF, Western blot of Nrf2 and NQO1; format: cell-based, human; details: 30 μM DMF for 40 hours
# Protocol: DLD1 cells were grown in MEM supplemented with 10% fetal bovine serum. The cells were transfected with the indicated siRNA's using the Lipofectamine reagent (Invitrogen) according to the manufacturer's instructions and 30 hrs later stimulated with 30 μM DMF for 40 hours. The cells were harvested and processed for Western blotting analysis of Nrf2 and NQO1 levels as described in Example 1. Sources and the identity of reagents used in Examples 1 and 2 are specified Table 3 below: […]
# Nrf2 [2] = assay: Nrf2 immunohistochemistry of spinal cord tissues in MOG 35-55 induced EAE; format: in vivo; details: EAE mice, oral gavage twice a day from day 3 p.i., DMF 5 or 15 mg/kg, MMF 15 mg/kg
# Protocol: For induction of EAE, mice received s.c. injections in the flanks and tail base of 50 μg MOG 35-55 peptide in PBS emulsified in an equal volume of complete Freund's adjuvant (CFA) containing Mycobacterium tuberculosis H37RA (Difco, Detroit Mich., USA) at a final concentration of 0.5 mg/ml. Two injections of pertussis toxin (List Biological Laboratories Inc., California, USA; […] i.p) were given on days 0 and 2.
# DMF and MMF was diluted in 200 μl 0.08% Methocel/H2O as vehicle and administered by oral gavage starting from day 3 post immunization (p.i) until termination. Each treatment group consisted of 8 animals: vehicle alone as a negative control, 5 mg/kg body weight DMF twice a day, 15 mg/kg body weight DMF twice a day, 15 mg/kg body weight MMF twice a day. The compounds were obtained via Fumapharm AG. Oral gavage was used to ensure exact dosing and to avoid compound degradation.
# Spinal cord tissues were fixed in 4% paraformaldehyde and embedded in paraffin. […]
# Immunohistochemistry was performed using the Dako autostainer as follows. […] The rabbit anti Nrf2 antibody C-20 (sc-722, Santa Cruz Biotechnology) was added at a 1:250 dilution in Dako Diluent with Background Reducing Components (Dako # S3022) C-20 antibody was detected using the Envision anti rabbit labeled polymer-HRP (Dako #K4003) and DAB (Vector Labs #SK-4100) was used as the chromogenic substrate. […]
# Nrf2 [3] = assay: Western blot of Nrf2 and NQO1 in DLD1 cells treated with DMF or MMF; format: cell-based, human; details: DLD1 cells in culture; 5, 15, or 50 μM; 16 hours
# Protocol: Human colon carcinoma DLD1 cells were treated with DMF or MMF at indicated concentrations (5, 15, or 50 μM) for 16 hours, rinsed with PBS, and harvested into reducing SDS sample buffer. The lysates were subjected to SDS PAGE and the separated proteins were electrophoretically transferred onto nitrocellulose membranes for Western blot analysis. To detect Nrf2 and NQO1, the membranes were incubated with the respective primary antibodies overnight at 4° C., washed, and incubated with peroxidase-conjugated secondary antibodies followed by the chemiluminescent peroxidase substrate. Detection of the target protein band luminescence and image acquisition were done using CCD-equipped imaging station Kodak2000R.
Compound,"DMF-induced upregulation of NQO1, dependence on Nrf2 (FIG. 2) (Nrf2 [1]; DLD1 cells transfected with Nrf2 or Keap1 siRNA)",Nrf2 agonism: cellular accumulation of Nrf2 and Nrf2 target gene expression (FIG. 2) (Nrf2 [1]; DLD1 cells),"activation of Nrf2 in vivo (Nrf2 immunostaining, morphometric analysis, FIGS. 3 and 4) (Nrf2 [2])","activation of Nrf2 (Nrf2 and NQO1 protein levels, Western blot, FIG. 1) (Nrf2 [3])"
COC(=O)/C=C/C(=O)OC [DMF],upregulation of NQO1 requires Nrf2,acts as an Nrf2 agonist,activation of Nrf2 in vivo,potent activators of Nrf2
COC(=O)/C=C/C(=O)O [MMF],,,activation of Nrf2 in vivo,potent activators of Nrf2
